{
  "source": "patent US20240199623A1",
  "about": "(ILDONG PHARMACEUTICAL CO., LTD., priority 2020, published 2024)",
  "data": [
    {"target": "human wild type-CFTR (Homo sapiens, UniProt P13569)", "sequence (P13569 whole entry)": "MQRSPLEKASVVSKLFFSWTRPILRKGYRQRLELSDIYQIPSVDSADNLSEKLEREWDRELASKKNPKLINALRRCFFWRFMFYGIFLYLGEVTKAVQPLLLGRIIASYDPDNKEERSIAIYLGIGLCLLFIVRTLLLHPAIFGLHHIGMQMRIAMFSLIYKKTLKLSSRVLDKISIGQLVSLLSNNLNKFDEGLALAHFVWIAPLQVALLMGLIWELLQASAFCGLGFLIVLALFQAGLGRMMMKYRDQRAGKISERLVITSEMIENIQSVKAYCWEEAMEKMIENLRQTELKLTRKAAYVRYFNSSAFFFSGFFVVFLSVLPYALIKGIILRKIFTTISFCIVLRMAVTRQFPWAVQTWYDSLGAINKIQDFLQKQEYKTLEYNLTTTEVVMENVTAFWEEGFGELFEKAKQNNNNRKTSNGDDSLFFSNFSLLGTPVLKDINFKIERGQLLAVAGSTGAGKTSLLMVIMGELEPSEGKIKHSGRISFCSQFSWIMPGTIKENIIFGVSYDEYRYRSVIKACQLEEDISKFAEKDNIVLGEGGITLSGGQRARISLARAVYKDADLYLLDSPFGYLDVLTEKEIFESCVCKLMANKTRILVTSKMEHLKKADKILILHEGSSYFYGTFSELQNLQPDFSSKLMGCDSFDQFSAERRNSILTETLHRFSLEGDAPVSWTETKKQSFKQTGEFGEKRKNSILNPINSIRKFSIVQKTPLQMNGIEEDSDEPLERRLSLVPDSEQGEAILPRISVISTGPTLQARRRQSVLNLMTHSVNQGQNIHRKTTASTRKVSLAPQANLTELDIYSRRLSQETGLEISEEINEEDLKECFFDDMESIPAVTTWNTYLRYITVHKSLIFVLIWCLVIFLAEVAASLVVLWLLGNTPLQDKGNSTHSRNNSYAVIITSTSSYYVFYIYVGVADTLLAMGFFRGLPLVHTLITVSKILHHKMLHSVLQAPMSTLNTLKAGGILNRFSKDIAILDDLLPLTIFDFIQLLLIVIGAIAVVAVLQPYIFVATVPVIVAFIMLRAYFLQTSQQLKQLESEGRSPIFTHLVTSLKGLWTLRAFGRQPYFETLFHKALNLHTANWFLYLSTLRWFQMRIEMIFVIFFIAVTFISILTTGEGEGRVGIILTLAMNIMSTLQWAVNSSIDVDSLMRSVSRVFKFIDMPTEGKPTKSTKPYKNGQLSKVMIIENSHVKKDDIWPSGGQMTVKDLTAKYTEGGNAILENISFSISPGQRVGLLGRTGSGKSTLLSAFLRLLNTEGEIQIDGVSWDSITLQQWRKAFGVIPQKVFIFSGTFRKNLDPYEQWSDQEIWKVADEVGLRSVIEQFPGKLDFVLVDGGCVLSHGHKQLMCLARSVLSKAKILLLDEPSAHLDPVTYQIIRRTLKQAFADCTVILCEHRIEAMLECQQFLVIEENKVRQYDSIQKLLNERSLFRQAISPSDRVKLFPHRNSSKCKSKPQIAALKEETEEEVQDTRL", "assay": "Cell-based YFP assay", "design": "expressed in transfected cells; host or cells: CHO-K1 (Chinese hamster ovary)", "conditions": "CHO-K1 cells expressing human wild type-CFTR and YFP-H148Q/I152L; forskolin 20 μM = 100% activity; read-out: Cell-based YFP Assay (EC50) Concentration Range", "outline": "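I⁻-driven YFP fluorescence quenching at 37 °C: 2 s baseline, addition of 140 mM iodide solution, then 14 s of readings at 0.4 s intervals. Cells were CHO-K1 expressing human wild-type CFTR plus YFP-H148Q/I152L. EC50 derived from averaged triplicates.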", "units": {"EC50": "µM"}, "values": [
      {"smiles": "COc1ccc(-c2ccnc3cc(C(=O)N4C[C@@H](C)N(C(=O)c5ccccc5)[C@@H](C)C4)nn23)cc1OC", "note": "[Compound 363, ((3R,5S)-4-benzoyl-3,5-dimethylpiperazin-1-yl)(7-(3,4-dimethoxyphenyl)pyrazolo[1,5-a]pyrimidin-2-yl) methanone]", "EC50": "< 0.2"},
      {"smiles": "COc1ccc(-c2ccnc3cc(C(=O)N4CCN(C(=O)c5ccccc5F)[C@@H](C)C4)nn23)cc1OC", "note": "[Compound 368, (S)-(7-(3,4-dimethoxyphenyl)pyrazolo[1,5-a]pyrimidin-2-yl)(4-(2-fluorobenzoyl)-3-methylpiperazin-1-yl)methanone]", "EC50": "< 0.2"},
      {"smiles": "COc1ccc(-c2ccnc3cc(C(=O)Nc4ccc5c(c4)OCO5)nn23)cc1OC", "note": "[Compound 310, N-(benzo[d][1,3]dioxol-5-yl)-7-(3,4-dimethoxyphenyl)pyrazolo[1,5-a]pyrimidine-2-carboxamide]", "EC50": "< 0.2"},
      {"smiles": "COc1ccc(-c2ccnc3cc(C(=O)N4CCN(C(=O)c5cc(F)ccc5F)[C@@H](C)C4)nn23)cc1OC", "note": "[Compound 356]", "EC50": "< 0.2"},
      {"smiles": "COc1ccc(-c2ccnc3cc(C(=O)N4CC(C)N(C(=O)c5ccccc5)C(C)C4)nn23)cc1OC", "note": "(stereo not shown) [Compound 348, (4-benzoyl-3,5-dimethylpiperazin-1-yl) (7-(3,4-dimethoxyphenyl)pyrazolo [1,5-a]pyrimidine-2-yl)methanone]", "EC50": "0.2 to 2"},
      {"smiles": "COc1ccc(-c2ccnc3cc(C(=O)Nc4ccc(C(=O)OCCCN5CCOCC5)c(Cl)c4)nn23)cc1OC", "note": "[Compound 162, 3-morpholinopropyl 2-chloro-4-(7-(3,4-dimethoxyphenyl)pyrazolo [1,5-a]pyrimidine-2-carboxamido)benzoate]", "EC50": "≥ 2"},
      {"smiles": "COC(=O)c1ccc(NC(=O)c2cc3nccc(-c4ccc(OC)c(OC)c4)n3n2)cn1", "note": "[Compound 190, methyl 5-(7-(3,4-dimethoxyphenyl)pyrazolo [1,5-a]pyrimidine-2-carboxamido)picolinate]", "EC50": "0.2 to 2"},
      {"smiles": "COc1ccc(-c2ccnc3cc(C(=O)Nc4ccc(C(=O)OCCN5CCCC5)cc4)nn23)cc1OC", "note": "[Compound 225, 2-(pyrrolidin-1-yl)ethyl 4-(7-(3,4-dimethoxyphenyl)pyrazolo [1,5-a]pyrimidine-2-carboxamido)benzoate]", "EC50": "≥ 2"},
      {"smiles": "CC[C@H]1CN(C(=O)c2cc3nccc(-c4ccc(OC)c(OC)c4)n3n2)CCN1", "note": "[Compound 371, (S)-(7-(3,4-dimethoxyphenyl)pyrazolo[1,5-a]pyrimidin-2-yl)(3-ethylpiperazin-1-yl)methanone]", "EC50": "0.2 to 2"},
      {"smiles": "COc1ccc(-c2ccnc3cc(C(=O)Nc4ccc(C(=O)N5CCN(C)CC5)c(OC)c4)nn23)cc1OC", "note": "[Compound 218, 7-(3,4-dimethoxyphenyl)-N-(3-methoxy-4-(4-methylpiperazine-1-carbonyl)phenyl)pyrazolo [1,5-a]pyrimidine-2-carboxamide]", "EC50": "≥ 2"},
      {"smiles": "CCCCCCCCCCOC(=O)[C@H]1CC[C@H](NC(=O)c2cc3nccc(-c4ccc(OC)c(OC)c4)n3n2)CC1", "note": "[Compound 333, decyl (1r,4r)-4-(7-(3,4-dimethoxyphenyl)pyrazolo [1,5-a]pyrimidine-2-carboxamido)cyclohexane-1-carboxylate]", "EC50": "≥ 2"},
      {"smiles": "COc1ccc(-c2ccnc3cc(C(=O)N[C@H]4CC[C@H](C(=O)N5CCN(C)CC5)CC4)nn23)cc1OC", "note": "[Compound 241, 7-(3,4-dimethoxyphenyl)-N-((1r,4r)-4-(4-methylpiperazine-1-carbonyl)cyclohexyl) pyrazolo[1,5-a]pyrimidine-2-carboxamide]", "EC50": "≥ 2"},
      {"smiles": "COc1ccc(-c2ccnc3cc(C(=O)N4C[C@H](C)N(C(=O)c5ccccc5)C[C@@H]4C)nn23)cc1OC", "note": "[Compound 366, ((2S,5S)-4-benzoyl-2,5-dimethylpiperazin-1-yl)(7-(3,4-dimethoxyphenyl)pyrazolo[1,5-a]pyrimidin-2-yl)methanone]", "EC50": "< 0.2"},
      {"smiles": "COc1ccc(-c2ccnc3cc(C(=O)NCc4ccc(C(=O)O)cc4)nn23)cc1OC", "note": "[Compound 94, 4-((7-(3,4-dimethoxyphenyl)pyrazolo[1,5-a]pyrimidine-2-carboxamido)methyl) benzoic acid]", "EC50": "≥ 2"},
      {"smiles": "COc1ccc(-c2ccnc3cc(C(=O)N[C@H]4CC[C@@H](C(=O)OCc5ccccn5)CC4)nn23)cc1OC", "note": "[Compound 247, pyridin-2-ylmethyl (1S,4S)-4-(7-(3,4-dimethoxyphenyl)pyrazolo [1,5-a]pyrimidine-2-carboxamido)cyclohexane-1-carboxylate]", "EC50": "0.2 to 2"},
      {"smiles": "COc1ccc(-c2ccnc3cc(C(=O)NC4CCN(C(=O)CO)CC4)nn23)cc1OC", "note": "[Compound 91, 7-(3,4-dimethoxyphenyl)-N-(1-(2-hydroxyacetyl)piperidin-4-yl)pyrazolo[1,5-a]pyrimidine-2-carboxamide]", "EC50": "≥ 2"},
      {"smiles": "COc1ccc(-c2ccnc3cc(C(=O)N4CCN(C(=O)c5ccncc5)[C@@H](C)C4)nn23)cc1OC", "note": "[Compound 357, (S)-(7-(3,4-dimethoxyphenyl)pyrazolo[1,5-a]pyrimidin-2-yl)(4-isonicotinoyl-3-methylpiperazin-1-yl)methanone]", "EC50": "0.2 to 2"},
      {"smiles": "COc1ccc(-c2ccnc3cc(C(=O)Nc4ccc(C(=O)N5CCN(C)CC5)cn4)nn23)cc1OC", "note": "[Compound 124, 7-(3,4-dimethoxyphenyl)-N-(5-(4-methylpiperazine-1-carbonyl)pyridin-2-yl)pyrazolo[1,5-a] pyrimidine-2-carboxamide]", "EC50": "< 0.2"},
      {"smiles": "Cc1cccc(-c2ccnc3cc(C(=O)Nc4ccc(N5CCOCC5)cn4)nn23)c1", "note": "[Compound 306, N-(5-morpholinopyridin-2-yl)-7-(m-tolyl)pyrazolo[1,5-a] pyrimidine-2-carboxamide]", "EC50": "≥ 2"},
      {"smiles": "COc1ccc(-c2ccnc3cc(C(=O)Nc4ccc(OC(=O)[C@@H](NC(=O)OCc5ccccc5)C(C)C)cc4)nn23)cc1OC", "note": "[Compound 171, 4-(7-(3,4-dimethoxyphenyl)pyrazolo[1,5-a]pyrimidine-2-carboxamido)phenyl ((benzyloxy)carbonyl)-L-valinate]", "EC50": "< 0.2"},
      {"smiles": "CCOC(=O)c1ccc(NC(=O)c2cc3nccc(-c4ccc(OC)c(OC)c4)n3n2)cc1", "note": "[Compound 334, ethyl 4-(7-(3,4-dimethoxyphenyl)pyrazolo[1,5-a]pyrimidine-2-carboxamido)benzoate]", "EC50": "< 0.2"},
      {"smiles": "COc1ccc(-c2ccnc3cc(C(=O)N4CCc5ccc(C(=O)N6CCOCC6)cc5C4)nn23)cc1OC", "note": "[Compound 238, (7-(3,4-dimethoxyphenyl)pyrazolo[1,5-a]pyrimidin-2-yl)(7-(morpholine-4-carbonyl)-3,4-dihydroisoquinolin-2(1H)-yl)methanone]", "EC50": "≥ 2"},
      {"smiles": "COC(=O)c1ccc(NC(=O)c2cc3nccc(-c4ccc(Cl)c(Cl)c4)n3n2)cc1", "note": "[Compound 40, methyl 4-(7-(3,4-dichlorophenyl)pyrazolo [1,5-a]pyrimidine-2-carboxamido) benzoate]", "EC50": "≥ 2"},
      {"smiles": "CCCOC(=O)[C@H]1CC[C@H](NC(=O)c2cc3nccc(-c4ccc(OC)c(OC)c4)n3n2)CC1", "note": "[Compound 331, propyl (1R,4R)-4-(7-(3,4-dimethoxyphenyl)pyrazolo [1,5-a]pyrimidine-2-carboxamido)cyclohexane-1-carboxylate]", "EC50": "0.2 to 2"},
      {"smiles": "COc1ccc(-c2ccnc3cc(C(=O)Nc4ccc(C)cn4)nn23)cc1OC", "note": "[Compound 122, 7-(3,4-dimethoxyphenyl)-N-(5-methylpyridin-2-yl)pyrazolo[1,5-a] pyrimdine-2-carboxamide]", "EC50": "< 0.2"}
    ]}
  ]
}
